In patent US20070071773A1, “Compositions and methods for the treatment and prophylaxis of infections caused by gram positive bacteria” (priority 2002, published 2007):
Entries after “also recorded” stand apart in the source; their conditions may differ.

How the values were obtained:
GAS strain JS95 [1] = assay: Bacterial growth inhibition (disks on blood-agar plate; THY medium); assay type: cell-based, Group A Streptococcus (GAS)
Procedure: One thousands to 1500 CFU of GAS strain JS95 were spread on the surface of a blood-agar plate, incubated at room temperature and disks with different concentrations of antibiotic (control) or peptide (25, 50 and 200 μg) were placed on the surface. The plates were incubated at 37° C. for 16 hours. Areas with no hemolysis (N. hemo.) indicate inhibition of GAS growth by antibiotics. Area with hemolysis (hemo.) indicates GAS growth in the presence of 200 μg of the peptide.
The inventors next examined whether the 17 amino acid peptide of the invention protects mice challenged with highly virulent strains by inhibition of bacterial growth. Different concentrations (1000-1500 CFU) of GAS strain JS95 were spread on the surface of a blood-agar plate and incubated at room temperature. Disks loaded with different concentrations of antibiotics (control) or peptide (25, 50 and 200 μg) were placed on the surface. […] 178:6087-6090 (1996); Havarstein, et al. J. Bacteriol. 179:6586-6584 (1997)] it is plausible that the peptide acts on a TCS. This in turn activates a signal transduction process in the bacteria leading to attenuation of virulence.

GAS strain JS95 [2] = assay: Murine model of invasive soft-tissue infection: survival and skin lesions after subcutaneous challenge with JS95; assay type: in vivo, Group A Streptococcus (GAS)
Procedure: (§1) The ability of GAS to cause lethal infection in ten-gram BALB/c female mice (Harlan Laboratories, Jerusalem, Israel) was assessed as described before [Ravins, M. et al. J. Infect. Dis. 182:1702-11 (2000)]. Briefly, 10^8 CFU of log-phase bacteria were washed twice in PBS, resuspended in 0.1 ml PBS and injected subcutaneously into the back of a mouse. The number of CFU injected was verified for each experiment by plating bacteria on THY-blood agar plates and counting. Each group contained 8 to 10 mice that were observed daily for death and changes in the lesions' properties such as size and depth, or were sacrificed at different times after inoculation for histopathological assessment. To determine the presence of bacteria in skin and spleen, mice were sacrificed; a wide area surrounding the skin lesions was excised, spleens were removed, and organs were homogenized in 10 or 1 ml of sterile PBS, respectively. Aliquots were plated and streptococcal colonies were counted. The Institutional Ethics Committee for animal care approved all animal procedures (approval number MD 79.17-4).
Therefore, the inventors next tested the peptide effect on virulence of the highly invasive strain of the invention. A 17 amino acid peptide, corresponding to the amino acid sequence encoded by the SilCR ORF, was synthesized and purified. Mice were challenged with the highly virulent strain (JS95) in the presence and absence of the 17 amino acid synthetic peptide DIFKLVIDHISMKARKK (also denoted by SEQ ID NO: 32), of a 70% purity.
The ability of the peptide to protect mice inoculated with increasing doses of the bacteria ranging from 10^7 to 10^10 CFU was next examined. […] Mice challenged with a low dose of 10^7 CFU, in the absence of the peptide, died within 4 days after challenge. […] Results were consistent even after 21 days of follow up (data not shown).
Mice were injected under the surface of the skin with 2×10^8 of M14 GAS strain, JS95, without (FIG. 8A) or with 25 μg of the highly purified (90% purity) 17 amino acid peptide (SEQ ID NO: 32) (FIG. 8B).
In order to examine the ability of the 17 amino acid peptide (SEQ ID NO: 32) to protect against bacterial challenge, mice were injected with 200 μg of this peptide 24 hours prior to bacterial challenge. As shown by FIG. 9, the 17 amino acid peptide protects 50% of the mice when injected 24 hours before bacterial challenge of 4×10^8 CFU of JS95 strain.

GAS M1 strain 340 = assay: Murine NF model: lesions after challenge with M1 strain 340; assay type: in vivo, Group A Streptococcus (GAS); conditions: co-injection of SilCR (50 μg, 90% purified) with 10^8 CFU M1 strain 340; FIG. 16C
Procedure: 16C. mice infected with 10^8 CFU of M1 strain 340+SilCR (50 μg 90% purified) 48 h after inoculation.
as §1
GAS of M1 and M3 serotypes are commonly associated with invasive disease and NF, and each lack the SilCR gene in their locus. […]

[3] = Neutrophil influx in mice after injection of the peptide alone; assay type: in vivo; conditions: without bacteria
Source text: This is in a sharp contrast to the paucity of neutrophil influx in mice challenged with JS95 alone (FIG. 11B). Thus, a rapid recruitment of neutrophils appears necessary to confine GAS infection, subsequently preventing a systemic GAS dissemination.

M3 strain = assay: Murine NF model: lesions after challenge with an M3 strain; assay type: in vivo, Group A Streptococcus (GAS); conditions: SilCR injected together with an M3 strain (data not shown)
[4] = tested on: serotype M14, M1 and M3 strains; assay: Neutrophil recruitment in mice challenged with different GAS serotypes; assay type: in vivo, Group A Streptococcus (GAS)
Source text: The absence (M1 and M3) or mutation (M14) of the gene encoding the SilCR pheromone in those GAS strains may eliminate a counter-regulatory mean to a GAS chemokine proteolysis, resulting in an increased virulence potential for invasive soft tissue infections.

C5a peptidase = assay: Surface expressed C5a peptidase of GAS in the absence and presence of SilCR; assay type: cell-based, Group A Streptococcus (GAS); conditions: absence vs presence of SilCR (not shown)
[5] = peptide of 90% purity mixed with 10^8 CFU JS95, subcutaneous, FIG. 6

Sequence: DIFKLVIDHISMKARKK (SilCR peptide) [17 amino acid synthetic peptide, predicted mature form of the pheromone peptide encoded by the SilCR ORF; used at 70% or 90% purity]
- inhibition of GAS growth (GAS strain JS95 [1]; THY medium and blood agar plates): does not inhibit GAS growth
- bacterial growth around disk (GAS strain JS95 [1]; disks with peptide up to 200 μg on blood-agar plate, 1000-1500 CFU JS95, 37° C. 16 hours, FIG. 10): bacterial growth was observed
- protection of mice (survival) (GAS strain JS95 [2]; 3 μg of the 90% purified peptide, JS95 challenge as high as 10^10 CFU, FIG. 16A): protected mice
- survival of mice (GAS strain JS95 [2]; 25 μg peptide (90% purity) with 2×10^8 JS95 under the surface of the skin, FIG. 8): all mice of this group survived
- skin lesion (GAS strain JS95 [2]; 25 μg peptide (90% purity) with 2×10^8 JS95 under the surface of the skin, FIG. 8B, 8D): small abscess surrounded by a normal skin
- protection of mice (survival) (GAS strain JS95 [2]; 100 μg peptide (70% purity) injected together with 10^7 CFU JS95, FIG. 5): partial protection
- mice protected (GAS strain JS95 [2]; 200 μg peptide (70% pure) injected 24 hours before challenge with 4×10^8 CFU JS95, FIG. 9): 50%
- protection of mice (survival) (GAS strain JS95 [2]; 200 μg peptide (70% pure), challenge with 10^7 and up to 10^9 CFU JS95, FIG. 7): completely protected
- deaths of mice (GAS strain JS95 [2]; 200 μg peptide (70% pure), challenge with 10^10 CFU JS95, FIG. 7): only one mouse died
- protection of mice (survival) (GAS strain JS95 [2]; 200 μg peptide (70% purity) injected together with 10^7 CFU JS95, FIG. 5): complete protection
- lesions of mice (GAS strain JS95 [2]; challenged with JS95 and SilCR, compared with JS95 alone, FIG. 8B vs 8A): significantly smaller, less necrotic and superficial, with defined borders
- dose dependence of protection of mice (GAS strain JS95 [2]; peptide of 70% purity, 10^7 CFU JS95, FIG. 5): dose-dependent
- peptide dose at which the protective effect is evident (GAS strain JS95 [2]; [5]): 3 µg
- peptide dose reaching plateau level of protection (GAS strain JS95 [2]; [5]): 50 µg
- protection of mice when administered at a site distant to the bacterial challenge (GAS strain JS95 [2]; simultaneously administered at a distant site): nor did it protect mice
- lesion size and duration (GAS M1 strain 340): significantly reduced size and duration
- neutrophil influx [3]: did not stimulate neutrophil recruitment; also recorded: did not induce neutrophil influx
- lesions (M3 strain): reduced lesions
- neutrophil recruitment [4]: improved neutrophil recruitment
- amount of surface expressed C5a peptidase (C5a peptidase): did not observe any change
